Assay [1] concerns primary human mesenchymal stem cells (hMSCs). Kind of assay: Induction of chondrogenesis in primary human mesenchymal stem cells. Type of assay: cell-based. The settings on record: Homo sapiens, Mesenchymal stem cells, 144 h, 6 days; for Emax: chondrogenic nodules, TGF-β3 (10 ng/mL) positive control, read-out: Max. Activity as % TGF-β3 activity; for EC50: concentration required to induce 50% levels of chondrogenesis vs TGF-β3, read-out: Conc (nM) of 50% TGF-β3 activity. The method, then: Representative compounds were screened using primary human mesenchymal stem cells (hMSCs) to determine their ability to induce chondrogenesis (process by which cartilage is developed).
Primary human mesenchymal stem cells (hMSCs) were purchased from Lonza (Walkersville, Md.) and expanded in Mesenchymal Stem Cell Growth Media (Lonza). Cells between passage 3 and 6 were used for the experiments.
Each compound was dissolved in DMSO as a 10 mM stock and used to prepare compound source plates. Serial dilution (1:3, 6-point dose-response curves from 2700 nM to 10 nM) and compound transfer was performed using the ECHO 550 (Labcyte, Sunnyvale, Calif.) into 96-well clear bottom assay plates (Greiner Bio-One) with appropriate DMSO backfill for a final DMSO concentration of 0.03%. hMSCs were plated at 20,000 cells/well in 250 μL/well Incomplete Chondrogenic Induction Medium (Lonza; DMEM, dexamethasone, ascorbate, insulin-transferrin-selenium [ITS supplement], gentamycin-amphotericin [GA-1000], sodium pyruvate, proline and L-glutamine). TGF-β3 (10 ng/mL) was used as a positive control for differentiation while negative control wells were treated with 75 nL DMSO for normalization and calculating EC50 values. Cells were incubated at 37° C. and 5% CO2 for 6 days. To image chondrogenic nodules, the cells were fixed using 4% formaldehyde (Electron Microscopy Sciences), and stained with 2 μg/mL Rhodamine B (Sigma-Aldrich) and 20 μM Nile Red (Sigma-Aldrich) [Johnson K., et. al, A Stem Cell-Based Approach to Cartilage Repair, Science, (2012). 336(6082), 717-721]. The nodules imaged (4 images per well at 4× magnification) by excitation at 531 nm and emission at 625 nm and quantified using the CellInsight CX5 (Thermo Scientific). Number of nodules in each well was normalized to the average of 3 DMSO treated wells on the same plate using Excel (Microsoft Inc.). The normalized averages (fold change over DMSO) of 3 replicate wells for each compound concentration were calculated. Due to solubility limitations of some of the compounds, curve fitting was incomplete leading to inaccurate EC50 determinations.
Using TGF-β3 as a positive control, the concentration of representative compounds required to induce 50% levels of chondrogenesis is reported. In addition, the maximum activity of each compound and the respective dose that each compound reached maximum chondrogenesis activity is reported.

The subject of assay [2] is IL-6. Kind of assay: IL-6 inhibition in LPS-stimulated THP-1 monocytes (HTRF). In kind it is cell-based, human. The conditions noted are these: Homo sapiens, THP-1 cells; for EC50: 500 ng/mL LPS, 22 h, HTRF IL-6 readout, 10-point dose-response from 10 μM. In a few lines: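 THP-1 cells serum-reduced (1% FBS, 24 h), then 5000 cells/well preincubated 2 h with compound (10-point 1:3 series from 10 μM, 0.1% DMSO) before 500 ng/mL LPS for 22 h at 37 °C. Secreted IL-6 quantified by HTRF 665/620 ratio; DMSO-normalised duplicates fitted to four-parameter EC50; above 10 μM, % inhibition at 10 μM given.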

By inhibition is commonly meant the relative decrease from the control value, in per cent. For `Fc1ccc(-c2cccc3[nH]c(-c4n[nH]c5ncc(-c6cncc(CN7CCCCC7)c6)cc45)cc23)cc1` [Compound 36, 3-(4-(4-Fluorophenyl)-1H-indol-2-yl)-5-(5-(piperidin-1-ylmethyl)pyridin-3-yl)-1H-pyrazolo[3,4-b]pyridine], in assay [1], the Emax turned out to be 67% and the EC50 stood at 10 nM. In assay [2], this compound gave an EC50 greater than 10000 nM. Besides, the inhibition at 10 µM in assay [2] (LPS stimulated, given only where EC50 >10 μM, top concentration 10 μM, read-out: percentage in parentheses beside EC50 >10 (IL-6 inhibition)) was found to be 45.5%.

As for `CC(C)(C)C(=O)Nc1cncc(-c2cnc3[nH]nc(-c4cc5c(-c6cccnc6)cccc5[nH]4)c3c2)c1` [Compound 78, N-(5-(3-(4-(Pyridin-3-yl)-1H-indol-2-yl)-1H-pyrazolo[3,4-b]pyridin-5-yl)pyridin-3-yl)pivalamide], the Emax in assay [1] is 232%. Besides, the results for the EC50 in assay [1] and in assay [2] were 300 nM and 88 nM, respectively.

As for `CC(C)(C)CC(=O)Nc1cncc(-c2cnc3[nH]nc(-c4cc5c(-c6ccccn6)cccc5[nH]4)c3c2)c1` [Compound 133, 3,3-Dimethyl-N-(5-(3-(4-(pyridin-2-yl)-1H-indol-2-yl)-1H-pyrazolo[3,4-b]pyridin-5-yl)pyridin-3-yl)butanamide], in assay [1], the Emax was determined as 345% and the EC50 turned out to be 900 nM. This compound also returned an EC50 in assay [2] of 421 nM.

`CS(=O)(=O)NCc1cc(F)cc(-c2cccc3[nH]c(-c4n[nH]c5ncc(-c6cncc(N)c6)cc45)cc23)c1` [Compound 453, N-(3-(2-(5-(5-Aminopyridin-3-yl)-1H-pyrazolo[3,4-b]pyridin-3-yl)-1H-indol-4-yl)-5-fluorobenzyl)methanesulfonamide]: in assay [1], the Emax came to 189%. In addition, the EC50 in assay [1] was 900 nM; in assay [2], 157 nM.

Take `CC(C)Nc1cncc(-c2cnc3[nH]nc(-c4cc5c(-c6cccnc6)cccc5[nH]4)c3c2)c1` [Compound 81, N-Isopropyl-5-(3-(4-(pyridin-3-yl)-1H-indol-2-yl)-1H-pyrazolo[3,4-b]pyridin-5-yl)pyridin-3-amine]: in assay [1], the Emax was found to be 264% and the EC50 worked out at 10 nM. In addition, the EC50 in assay [2] was determined as 1560 nM.

On to `O=C(Nc1cncc(-c2cnc3[nH]nc(-c4cc5c(-c6ccccn6)cccc5[nH]4)c3c2)c1)c1ccccc1` [Compound 128, N-(5-(3-(4-(Pyridin-2-yl)-1H-indol-2-yl)-1H-pyrazolo[3,4-b]pyridin-5-yl)pyridin-3-yl)benzamide], for which, in assay [1], the Emax was 565% and the EC50 came to 300 nM. Moreover, the EC50 in assay [2] is 9 nM.

Take `CN(C)CCNc1cc(F)cc(-c2cccc3[nH]c(-c4n[nH]c5ncc(-c6cncc(OC7CCCCC7)c6)cc45)cc23)c1` [Compound 785, N^1-(3-(2-(5-(5-(Cyclohexyloxy)pyridin-3-yl)-1H-pyrazolo[3,4-b]pyridin-3-yl)-1H-indol-4-yl)-5-fluorophenyl)-N^2,N^2-dimethylethane-1,2-diamine]: in assay [1], the Emax was found to be 147% and the EC50 was 30 nM. Further, the EC50 in assay [2] was 1800 nM.

Regarding `c1cncc(-c2cccc3[nH]c(-c4n[nH]c5ncc(-c6cncc(CN7CCCCC7)c6)cc45)cc23)c1` [Compound 84, 5-(5-(Piperidin-1-ylmethyl)pyridin-3-yl)-3-(4-(pyridin-3-yl)-1H-indol-2-yl)-1H-pyrazolo[3,4-b]pyridine], in assay [1], the Emax amounted to 82% and the EC50 was 900 nM. Further, in assay [2], the EC50 is 355 nM.

Turning to `O=C(CC1CCNCC1)Nc1cncc(-c2cnc3[nH]nc(-c4cc5c(-c6ccccn6)cccc5[nH]4)c3c2)c1` [Compound 595, 2-(Piperidin-4-yl)-N-(5-(3-(4-(pyridin-2-yl)-1H-indol-2-yl)-1H-pyrazolo[3,4-b]pyridin-5-yl)pyridin-3-yl)acetamide], the Emax in assay [1] is 79%. Further, in assay [2], the EC50 came to 247 nM.

On to `CCCC(=O)Nc1cncc(-c2cnc3[nH]nc(-c4cc5ccccc5[nH]4)c3c2)c1` [Compound 243, N-(5-(3-(1H-Indol-2-yl)-1H-pyrazolo[3,4-b]pyridin-5-yl)pyridin-3-yl) butyramide], for which, in assay [1], the Emax amounted to 28%. The compound also yielded an EC50 in assay [2] of 2080 nM.

As to `CN(C)Cc1cncc(-c2cnc3[nH]nc(-c4cc5c(-c6cc(F)cc(CNS(C)(=O)=O)c6)cccc5[nH]4)c3c2)c1` [Compound 463, N-(3-(2-(5-(5-((Dimethylamino)methyl)pyridin-3-yl)-1H-pyrazolo[3,4-b]pyridin-3-yl)-1H-indol-4-yl)-5-fluorobenzyl)methane sulfonamide], in assay [1], the Emax amounted to 65% and the EC50 amounted to 100 nM. Moreover, the EC50 in assay [2] stood at 451 nM.

Values taken from patent US20180214428A1, “3-(1H-INDOL-2-YL)-1H-PYRAZOLO[3,4-B]PYRIDINES AND THERAPEUTIC USES THEREOF” (Samumed, LLC, priority 2015, published 2018).
